Results published in patent publication US6936447B1, “Autoinducer molecule” (priority 2000, dated 2005).
Read-outs that look alike come from different tables or passages of the source.

What was measured:
LasR protein = molecular target: T1, LasR protein (Pseudomonas aeruginosa, UniProt P25084); assay: Activation of the LasR protein by optical isomers
T1 construct: expressed in transfected cells; host or cells: E. coli MG4 containing pKDT17 (plac-lasR plus lasB::lacZ reporter)

[1] = system: lasB promoter activity in E. coli MG4 (pKDT17, lasR + lasB::lacZ); assay: P. aeruginosa autoinducer bioassay (lasB::lacZ β-galactosidase reporter); format: cell-based; details: for β-galactosidase (lasB::lacZ promoter activity): average of four experiments ± range
Protocol: (§1) For production of PAI, cultures of P. aeruginosa PAO1 or E. coli TB1 containing pLasI-1 were grown to the late-logarithmic phase in A medium (Maniatis, T., Fritsch, E. F., and Sambrook, J. (1992) Molecular Cloning: A Laboratory Manual, ed. Nolan C. (Cold Spring Harbor Laboratory, Cold Spring Harbor, N.Y.), 2nd Ed) supplemented with 0.4% glucose, 0.05% yeast extract, and 1 mM MgSO4 with shaking at 37° C., unless otherwise specified. For subsequent use in autoinducer bioassays, E. coli MG4 containing pKDT17 was grown in supplemented A medium at 30° C. with shaking, and E. coli VJS533 containing pHV200I^− was grown in L broth (Silhavy, T. J., Berman, M. L. and Enquist, L. W. (1984) Experiments with Gene Fusions (Cold Spring Harbor Lab., Cold Spring Harbor, N.Y.), P. 217) at 30° C. with shaking. For plasmid screening and maintenance, ampicillin (100 μg/ml) was included in E. coli cultures, and carbenicillin (200 ug/ml) was included in cultures of P. aeruginosa.
For the bioassay, overnight cultures of E. coli containing the lasB-promoter reporter, pKDT17 were diluted in supplemented A mediun to an optical density of 0.1 at 660 nm, and stored on ice. Each bioassay consisted of 2 ml of the cell suspension plus the test sample. After 5.5 h at 30° C. with shaking, β-galactosidase activity was measured by the CHCl3-sodium dodecyl sulfate method described by Miller (Miller, J. A. (1976) Experiments in Molecular Genetics (Cold Spring Harbor Lab., Cold Spring Harbor, N.Y.), pp. 352-355). As described in Example 1, there was a linear dose response to autoinducer in this bioassay. Without addition of autoinducer, β-galactosidase activities were 25±10 Miller units, and with saturating amounts of autoinducer, β-galactosidase activities were 1300±200 Miller units. A unit of P. aeruginosa autoinducer activity is defined as that amount required to achieve ½-saturation in the bioassay.

[2] = system: V. fischeri luminescence genes (LuxR) in E. coli VJS533 (pHV200I−); details: literature (Eberhard et al. 1986), cited from earlier work
[3] = system: conjugal transfer genes in Agrobacterium tumefaciens; details: literature (Zhang et al. 1993); cited from earlier work
[4] = system: V. fischeri luminescence genes (LuxR) in E. coli VJS533 (pHV200I−); assay: V. fischeri autoinducer bioassay (luminescence); format: cell-based
Protocol: as §1
The quantitative assay for VAI was based on those described elsewhere (Kaplan, H. B. and Greenberg, E. P. (1985) J. Bacteriol. 163, 1210-1214; Bainton, N. J., Bycroft, B. W., Chhabra, S. R., Stead, P., Gledhill, L., Hill, P. J., Rees, C. E. D., Winson, M. K., Salmond, G. P. C., Stewart, G. S. A. B. and Williams, P. (1992) Gene 116, 87-91; Nealson, K. H. (1977) Arch. Microbiol. 112, 73-79). E. coli VJS533 containing pHV200I^− was used to test for V. fischeri autoinducer activity. The plasmid, pHV200I^− contains all of the V. fischeri genes necessary for autoinducible luminescence in E. coli, however, the gene encoding autoinducer synthase, luxI, is inactivated such that E. coli containing pHV200I^− is not luminescent without addition of VAI. Overnight cultures of E. coli containing pHV200I^− were diluted to an optical density of 0.01 at 660 nm in an assay medium consisting of 0.05% tryptone, 0.03% glycerol, 100 mM NaCl, 50 mM MgSO4, and 10 mM potassium phosphate, pH 7. […] After 3 hours at room temperature, luminescence was measured by using a Beckman LS 1800 Scintillation Counter that was set for single photon counting. […]

T1 sequence (P25084 whole entry): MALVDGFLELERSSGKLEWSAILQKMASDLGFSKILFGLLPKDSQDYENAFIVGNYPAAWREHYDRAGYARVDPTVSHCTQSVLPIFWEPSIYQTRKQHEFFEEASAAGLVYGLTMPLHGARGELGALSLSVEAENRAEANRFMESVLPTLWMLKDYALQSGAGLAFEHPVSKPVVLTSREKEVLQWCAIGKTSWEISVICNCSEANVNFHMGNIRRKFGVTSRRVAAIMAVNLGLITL

## CCCCCCCCCC(=O)CC(=O)N[C@H]1CCOC1=O (single isomer, unassigned) [D-isomer, N-(3-oxododecanoyl)homoserine lactone]
LasR protein
  activity of the isomer (activation of the LasR protein): small amount of activity
LasR protein; by attaching to the autoinducer binding domain of LasR
  inhibition of the ability of the L-isomer to activate the LasR protein: can inhibit

## CCCCCC(=O)CC(=O)NC1CCOC1=O (centres unmarked) [AAI, N-(3-oxooctanoyl)homoserine lactone]
[1]
  activity as P. aeruginosa autoinducer (inducer of lasB promoter), in words: considerable activity
[1]; 50 nM autoinducer added
  β-galactosidase (lasB::lacZ promoter activity): 56 +/− 5 Miller units
[1]; 500 nM autoinducer added
  β-galactosidase (lasB::lacZ promoter activity): 733 +/− 50 Miller units
[1]; relative to PAI
  concentration required for activity as the P. aeruginosa autoinducer, compared with PAI: higher
  maximal response as P. aeruginosa autoinducer, compared with PAI: lower
[2]
  activity with V. fischeri LuxR / luminescence genes: shows activity
[2]; listed as N-(3-oxooctanoyl)homoserine lactone
  activity with V. fischeri LuxR / luminescence genes: some activity
[3]
  activity as the A. tumefaciens autoinducer: shows activity

## CCCC(=O)CC(=O)N[C@H]1CCOC1=O [VAI, N-(3-oxohexanoyl)homoserine lactone]
[1]
  activity as P. aeruginosa autoinducer (inducer of lasB promoter), in words: did not show any detectable activity
[1]; 50 nM autoinducer added
  β-galactosidase (lasB::lacZ promoter activity): 33 +/− 3 Miller units
[1]; 500 nM autoinducer added
  β-galactosidase (lasB::lacZ promoter activity): 34 +/− 1 Miller units
[1]; concentrations as high as 1 uM
  activity in the P. aeruginosa autoinducer bioassay: no detectable activity
[4]
  concentration giving maximal response in the V. fischeri autoinducer bioassay: about 50 nM
[4]; synthetic VAI standard curve, read-out: half-maximal response in V. fischeri autoinducer bioassay (one unit of activity)
  EC50: ~25 nM

## CCCCCCCCCC(=O)CC(=O)NC1CCOC1=O [N-(3-oxododecanoyl) L-homoserine lactone, N-(3-oxododecanoyl)homoserine lactone]
[1]
  activity as P. aeruginosa autoinducer (inducer of lasB promoter), in words: biologically active
[1]; Escherichia coli, read-out: half-maximal response in P. aeruginosa autoinducer bioassay
  EC50: 3 to 5 nM
[4]; HPLC fractions of PAI peaks
  VAI activity (induction of luminescence) of HPLC peaks: no significant VAI activity
LasR protein
  activity of the isomer (activation of the LasR protein): active form
